Reference: patent publication US8802597B2, “Herbicidal pyrimidines” (E I du Pont de Nemours and Company, priority 2003, dated 2014)

Tests used:
Type in all cases: in vivo
[1] = tested on: Surinam grass (Brachiaria decumbens); experiment: Test B pre/postemergence
From the text: (§1) Seeds selected from barnyardgrass (Echinochloa crus-galli), Surinam grass (Brachiaria decumbens), cocklebur (Xanthium strumarium), corn (Zea mays), crabgrass (Digitaria sanguinalis), giant foxtail (Setaria faberii), lambsquarters (Chenopodium album), morningglory (Ipomoea coccinea), pigweed (Amaranthus retroflexus), velvetleaf (Abutilon theophrasti), and wheat (Triticum aestivum) were planted and treated preemergence with test chemicals formulated in a non-phytotoxic solvent mixture which included a surfactant.
(§2) At the same time, plants selected from these crop and weed species and also blackgrass (Alopecurus myosuroides) and wild oat (Avena fatua) were treated with postemergence applications of test chemicals formulated in the same manner. Plants ranged in height from 2 to 18 cm (1- to 4-leaf stage) for postemergence treatments. Plant species in the flooded paddy test consisted of rice (Oryza sativa), umbrella sedge (Cyperus difformis), duck salad (Heteranthera limosa) and barnyardgrass (Echinochloa crus-galli) grown to the 2-leaf stage for testing. Treated plants and controls were maintained in a greenhouse for 13 to 15 days, after which time all species were compared to controls and visually evaluated. Plant response ratings, summarized in Table B, are based on a scale of 0 to 100 where 0 is no effect and 100 is complete control. A dash (-) response means no test result.

[2] = tested on: barnyardgrass (Echinochloa crus-galli); experiment: Test B pre/postemergence
From the text: as §1, §2

[3] = tested on: cocklebur (Xanthium strumarium); experiment: Test B pre/postemergence
From the text: as §1, §2

corn (Zea mays) = experiment: Test B pre/postemergence
From the text: as §1, §2

[4] = tested on: crabgrass (Digitaria sanguinalis); experiment: Test B pre/postemergence
From the text: as §1, §2

[5] = tested on: giant foxtail (Setaria faberii); experiment: Test B pre/postemergence
From the text: as §1, §2

[6] = tested on: lambsquarters (Chenopodium album); experiment: Test B pre/postemergence
From the text: as §1, §2

[7] = tested on: morningglory (Ipomoea coccinea); experiment: Test B pre/postemergence
From the text: as §1, §2

[8] = tested on: pigweed (Amaranthus retroflexus); experiment: Test B pre/postemergence
From the text: as §1, §2

[9] = tested on: velvetleaf (Abutilon theophrasti); experiment: Test B pre/postemergence
From the text: as §1, §2

[10] = tested on: wheat (Triticum aestivum); experiment: Test B pre/postemergence
From the text: as §1, §2

[11] = tested on: blackgrass (Alopecurus myosuroides); experiment: Test B postemergence; details: for Blackgrass plant response rating: 125 g ai/ha, scale 0 to 100 (0 no effect, 100 complete control); for Plant response rating, Blackgrass: 500 g ai/ha, scale 0 to 100
Method in brief: (§3)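 Visual injury scored 0 (no effect) to 100 (complete control) versus untreated controls after 13 to 15 days in greenhouse. Treatments were pre- or postemergence sprays of surfactant-containing solvent formulations; postemergence plants at 1- to 4-leaf stage, 2 to 18 cm.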

wild oat (Avena fatua) = experiment: Test B postemergence; details: for Oat, Wild plant response rating: 125 g ai/ha, scale 0 to 100 (0 no effect, 100 complete control); for Plant response rating, Oat, Wild: 500 g ai/ha, scale 0 to 100
Method in brief: as §3

[12] = tested on: barnyardgrass (Echinochloa crus-galli); experiment: Test B flooded paddy test; details: Flood, 1000 g ai/ha; scale 0 (no effect) to 100 (complete control)
Method in brief: (§4)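 Visual injury scoring (0 = no effect, 100 = complete control) versus controls made 13 to 15 days after treatment in the greenhouse. Test species were grown in flooded paddy to the 2-leaf stage: rice, barnyardgrass, umbrella sedge, duck salad.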

[13] = tested on: duck salad (Heteranthera limosa); experiment: Test B flooded paddy test; details: Flood, 1000 g ai/ha; scale 0 to 100
Method in brief: as §4

rice (Oryza sativa) = experiment: Test B flooded paddy test; details: Flood, 1000 g ai/ha; scale 0 to 100
Method in brief: as §4

[14] = tested on: umbrella sedge (Cyperus difformis); experiment: Test B flooded paddy test; details: Flood, 1000 g ai/ha; scale 0 to 100
Method in brief: as §4

[15] = Postemergence, 125 g ai/ha, scale 0 to 100 (0 no effect, 100 complete control)
[16] = Postemergence, 500 g ai/ha, scale 0 to 100
[17] = Preemergence, 125 g ai/ha, scale 0 to 100 (0 no effect, 100 complete control)
[18] = Preemergence, 500 g ai/ha, scale 0 to 100 (0 no effect, 100 complete control)

SMILES: CON=Cc1nc(C2CC2)nc(N)c1Br [Compound 48]
- Surinam Grass plant response rating [1, 15]: 0
- Plant response rating, Surinam Grass [1, 16]: 10
- Plant response rating, Surinam Grass [1, 17]: 30
- Surinam Grass plant response rating [1, 18]: 60
- Barnyardgrass plant response rating [2, 15]: 10
- Plant response rating, Barnyardgrass [2, 16]: 20
- Plant response rating, Barnyardgrass [2, 17]: 0
- Barnyardgrass plant response rating [2, 18]: 10
- Cocklebur plant response rating [3, 15]: 20
- Plant response rating, Cocklebur [3, 16]: 80
- Plant response rating, Cocklebur [3, 17]: 0
- Cocklebur plant response rating [3, 18]: 20
- Corn plant response rating (corn (Zea mays); [15]): 0
- Plant response rating, Corn (corn (Zea mays); [16]): 0
- Plant response rating, Corn (corn (Zea mays); [17]): 0
- Corn plant response rating (corn (Zea mays); [18]): 0
- Crabgrass plant response rating [4, 15]: 10
- Plant response rating, Crabgrass [4, 16]: 20
- Plant response rating, Crabgrass [4, 17]: 10
- Foxtail, Giant plant response rating [5, 15]: 10
- Plant response rating, Foxtail, Giant [5, 16]: 10
- Plant response rating, Foxtail, Giant [5, 17]: 30
- Foxtail, Giant plant response rating [5, 18]: 50
- Lambsquarters plant response rating [6, 15]: 60
- Plant response rating, Lambsquarters [6, 16]: 80
- Plant response rating, Lambsquarters [6, 17]: 70
- Lambsquarters plant response rating [6, 18]: 100
- Morningglory plant response rating [7, 15]: 30
- Plant response rating, Morningglory [7, 16]: 80
- Plant response rating, Morningglory [7, 17]: 0
- Morningglory plant response rating [7, 18]: 30
- Pigweed plant response rating [8, 15]: 60
- Plant response rating, Pigweed [8, 16]: 80
- Plant response rating, Pigweed [8, 17]: 60
- Pigweed plant response rating [8, 18]: 80
- Velvetleaf plant response rating [9, 15]: 10
- Plant response rating, Velvetleaf [9, 16]: 60
- Plant response rating, Velvetleaf [9, 17]: 0
- Velvetleaf plant response rating [9, 18]: 0
- Wheat plant response rating [10, 15]: 0
- Plant response rating, Wheat [10, 16]: 20
- Plant response rating, Wheat [10, 17]: 0
- Plant response rating, Wheat [10, 18]: 30
- Blackgrass plant response rating [11]: 0
- Plant response rating, Blackgrass [11]: 20
- Oat, Wild plant response rating (wild oat (Avena fatua)): 0
- Plant response rating, Oat, Wild (wild oat (Avena fatua)): 20
- Plant response rating, Barnyardgrass [12]: 20
- Plant response rating, Ducksalad [13]: 20
- Plant response rating, Rice (rice (Oryza sativa)): 0
- Plant response rating, Sedge, Umbrella [14]: 0

SMILES: CC=NNc1nc(C2CC2)nc(C(=O)OC)c1Br [Compound 124]
- Surinam Grass plant response rating [1, 15]: 0
- Plant response rating, Surinam Grass [1, 16]: 0
- Plant response rating, Surinam Grass [1, 17]: 0
- Plant response rating, Surinam Grass [1, 18]: 0
- Barnyardgrass plant response rating [2, 15]: 0
- Plant response rating, Barnyardgrass [2, 16]: 40
- Plant response rating, Barnyardgrass [2, 17]: 0
- Plant response rating, Barnyardgrass [2, 18]: 0
- Cocklebur plant response rating [3, 15]: 30
- Plant response rating, Cocklebur [3, 16]: 80
- Plant response rating, Cocklebur [3, 17]: 10
- Plant response rating, Cocklebur [3, 18]: 60
- Corn plant response rating (corn (Zea mays); [15]): 0
- Plant response rating, Corn (corn (Zea mays); [16]): 0
- Plant response rating, Corn (corn (Zea mays); [17]): 0
- Plant response rating, Corn (corn (Zea mays); [18]): 0
- Crabgrass plant response rating [4, 15]: 10
- Plant response rating, Crabgrass [4, 16]: 40
- Plant response rating, Crabgrass [4, 17]: 0
- Plant response rating, Crabgrass [4, 18]: 0
- Foxtail, Giant plant response rating [5, 15]: 10
- Plant response rating, Foxtail, Giant [5, 16]: 20
- Plant response rating, Foxtail, Giant [5, 17]: 0
- Plant response rating, Foxtail, Giant [5, 18]: 0
- Lambsquarters plant response rating [6, 15]: 40
- Plant response rating, Lambsquarters [6, 16]: 90
- Plant response rating, Lambsquarters [6, 17]: 0
- Plant response rating, Lambsquarters [6, 18]: 70
- Morningglory plant response rating [7, 15]: 50
- Plant response rating, Morningglory [7, 16]: 100
- Plant response rating, Morningglory [7, 17]: 10
- Plant response rating, Morningglory [7, 18]: 60
- Pigweed plant response rating [8, 15]: 50
- Plant response rating, Pigweed [8, 16]: 90
- Plant response rating, Pigweed [8, 17]: 20
- Plant response rating, Pigweed [8, 18]: 70
- Velvetleaf plant response rating [9, 15]: 20
- Plant response rating, Velvetleaf [9, 16]: 50
- Plant response rating, Velvetleaf [9, 17]: 20
- Plant response rating, Velvetleaf [9, 18]: 50
- Wheat plant response rating [10, 15]: 0
- Plant response rating, Wheat [10, 16]: 30
- Plant response rating, Wheat [10, 17]: 0
- Plant response rating, Wheat [10, 18]: 0
- Blackgrass plant response rating [11]: 0
- Plant response rating, Blackgrass [11]: 40
- Oat, Wild plant response rating (wild oat (Avena fatua)): 0
- Plant response rating, Oat, Wild (wild oat (Avena fatua)): 30
- Plant response rating, Barnyardgrass [12]: 0
- Plant response rating, Ducksalad [13]: 0
- Plant response rating, Rice (rice (Oryza sativa)): 0
- Plant response rating, Sedge, Umbrella [14]: 0
